Values quoted from earlier work as cited in patent US20250339338A1, “BLOOD STORAGE CONTAINER CONTAINING AQUEOUS COMPOSITION FOR THE STORAGE OF RED BLOOD CELLS” (Hemerus Medical, LLC, priority 2013, published 2025).

Tested on: humans
Settings: in vivo

CCCCC(CC)COC(=O)c1ccccc1C(=O)OCC(CC)CCCC (stereo not shown) [DEHP, di-ethylhexyl phthalate]
adverse health effects found in studies in humans: adverse health effects such as respiratory distress, choleostasis, and histological abnormalities of the liver
